Test results reported in publication PMC9942528 (Journal of medicinal chemistry, 2022).
Read-outs that look alike come from different tables or passages of the source. Marks after values point to notes of the source that are not given here. Values belong to the molecule of their own block, whether it stands above or below them.

What was measured:
[1] = Stability assay in rat liver microsomes; assay type: in vitro ADME; conditions: for Metabolic stability, % after 30 min incubation / less stable than (R)- and (S)-11b, (R)- and (S)-11c, and 2: rat microsomes; for Metabolic stability, % after 30 min incubation: 10 μM, parent remaining; for microsomal CLint at 2 h, 10 µM: pH 7.4; for less stable than (R)- and (S)-11b, (R)- and (S)-11c, and 2: recovery after 30 min
[2] = biological target: T1, human FPR2 (Homo sapiens, UniProt P25090); assay: Ca2+ mobilization; conditions: for increase in FPR2 potency as compared to 2: ratio of EC50 values
T1 sequence (P25090 1-351): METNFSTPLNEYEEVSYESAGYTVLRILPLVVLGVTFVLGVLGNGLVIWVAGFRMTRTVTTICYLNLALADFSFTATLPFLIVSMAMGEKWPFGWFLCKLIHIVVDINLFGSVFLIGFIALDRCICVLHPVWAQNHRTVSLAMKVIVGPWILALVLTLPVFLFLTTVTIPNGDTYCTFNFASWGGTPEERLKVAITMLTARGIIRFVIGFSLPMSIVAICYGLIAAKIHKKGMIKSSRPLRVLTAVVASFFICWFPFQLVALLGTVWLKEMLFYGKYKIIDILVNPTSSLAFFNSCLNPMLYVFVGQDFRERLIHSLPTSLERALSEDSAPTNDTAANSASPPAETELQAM

[3] = test system: mouse microglial N9 cells; assay: Cytotoxicity, MTT assay in N9 cells; assay type: cell-based
[4] = test system: murine N9 cells; assay: ELISA of TNF-α and IL-1β in N9 cells, resting and LPS-stimulated; assay type: cell-based, mouse; conditions: for release of IL-1β and TNF-α under resting conditions: 0.5 to 5 μM; for effect on LPS-induced cytokines (IL-1β, TNF-α) production: LPS 100 ng/mL 24 h
[5] = test system: rat primary microglial cells; assay: Nitric oxide; assay type: cell-based; conditions: for effect on LPS-induced NO production: 0.1 μM, LPS 100 ng/mL 24 h; for effect on NO production under resting conditions: rat primary microglial cells
[6] = test system: rat primary microglial cells; assay: LDH release assay in rat primary microglial cells; conditions: for effect on LPS-induced cell death (LDH release): 0.1 μM, LPS 100 ng/mL 24 h; for effect on cell viability (LDH) under resting conditions: rat primary microglial cells
[7] = In vivo pharmacokinetics in mice; conditions: for Tmax: male, CD-1, mouse, plasma
[8] = test system: caspase-3; assay: Caspase-3 activity in rat primary microglial cells; assay type: cell-based; conditions: 0.1 μM, LPS 100 ng/mL 24 h
[9] = biological target: T1, human FPR2; conditions: functional antagonism vs WKYMVM
[10] = test system: mouse hippocampal organotypic cultures; conditions: OHCs stimulated with LPS, pre-treatment; ref [27]; cited from earlier work
[11] = hCMEC/D3 cells; ref [25]; cited from earlier work
[12] = rat microsomes; ref [25]; cited from earlier work
[13] = test system: APP/PS1 mouse model; conditions: systemic administration, ref [28]; cited from earlier work
[14] = test system: rat primary microglial cells; conditions: rat primary microglial cultures stimulated with LPS; ref [25]; cited from earlier work
[15] = rat, rat liver microsomes, pH 7.4, half-life

- Metabolic stability, % after 30 min incubation [1]: 65%
- microsomal CLint at 2 h, 10 µM ([1]; rat, rat liver microsomes): 6.2 µL/min/mg
- increase in FPR2 potency as compared to 2 [2]: equipotent
SMILES: N#Cc1ccc(C[C@H](NC(=O)Nc2ccc(F)cc2)C(=O)N2CCCC2)cc1 [(S)-11c, (S)-1-(3-(4-Cyanophenyl)-1-oxo-1-(pyrrolidin-1-yl)propan-2-yl)-3-(4-fluorophenyl)urea]
- cytotoxic effect in the MTT test [3]: did not exert any cytotoxic effects

- microsomal CLint at 2 h, 10 µM ([1]; rat, rat liver microsomes): 4.1 µL/min/mg
SMILES: N#Cc1ccc(C[C@H](NC(=O)Nc2ccc(F)cc2)C(=O)N2Cc3ccc(F)cc3C2)cc1 [(S)-11j, (S)-1-(3-(4-Cyanophenyl)-1-(5-fluoroisoindolin-2-yl)-1-oxopropan-2-yl)-3-(4-fluorophenyl)urea]

- less stable than (R)- and (S)-11b, (R)- and (S)-11c, and 2 [1]: 2–3 fold
- IC50 at FPR2, range in words [9]: nanomolar range
SMILES: N#Cc1ccc(C[C@H](NC(=O)Nc2ccc(F)cc2)C(=O)N2CCc3ccccc3C2)cc1 [(S)-11f, (S)-1-(3-(4-Cyanophenyl)-1-(3,4-dihydroisoquinolin-2(1H)-yl)-1oxopropan-2-yl)-3-(4-fluorophenyl)urea]

- less stable than (R)- and (S)-11b, (R)- and (S)-11c, and 2 [1]: 2–3 fold
SMILES: N#Cc1ccc(C[C@H](NC(=O)Nc2ccc(F)cc2)C(=O)N2CCCc3ccccc32)cc1 [(S)-11g, (S)-1-(3-(4-Cyanophenyl)-1-(3,4-dihydroquinolin-1(2H)-yl)-1-oxopropan-2-yl)-3-(4-fluorophenyl)urea]

- loss of FPR2 potency versus the non-substituted counterpart ([2]; 11h vs 11b): 20 fold
SMILES: N#Cc1ccc(C[C@H](NC(=O)Nc2ccc(F)cc2)C(=O)N2CCC(F)(F)CC2)cc1 [(S)-11h, (S)-1-(3-(4-Cyanophenyl)-1-(4,4-difluoropiperidin-1-yl)-1-oxopropan-2-yl)-3-(4-fluorophenyl)urea]
- cytotoxic effect in the MTT test [3]: did not exert any cytotoxic effects

- microsomal CLint at 2 h, 10 µM ([1]; rat, rat liver microsomes): 24.7 µL/min/mg
- half-life at 2 h, 10 µM [1, 15]: 28 min
- less stable than (R)- and (S)-11b, (R)- and (S)-11c, and 2 [1]: 2–3 fold
SMILES: N#Cc1ccc(C[C@H](NC(=O)Nc2ccc(F)cc2)C(=O)N2Cc3ccccc3C2)cc1 [(S)-11d, (S)-1-(3-(4-Cyanophenyl)-1-(isoindolin-2-yl)-1-oxopropan-2-yl)-3-(4-fluorophenyl)urea]

Continued, molecule first:

SMILES: N#Cc1ccc(C[C@H](NC(=O)Nc2ccc(F)cc2)C(=O)N2CCCCC2)cc1 [(S)-11b, (S)-1-(3-(4-Cyanophenyl)-1-oxo-1-(piperidin-1-yl)propan-2-yl)-3-(4-fluorophenyl)urea]
- Metabolic stability, % after 30 min incubation [1]: 34%
- microsomal CLint at 2 h, 10 µM ([1]; rat, rat liver microsomes): 13.9 µL/min/mg
- increase in FPR2 potency as compared to 2 [2]: 4 fold
- cytotoxic effect in the MTT test [3]: did not exert any cytotoxic effects

SMILES: N#Cc1ccc(C[C@@H](NC(=O)Nc2ccc(F)cc2)C(=O)N2CCCCC2)cc1 [(R)-11b, (R)-1-(3-(4-Cyanophenyl)-1-oxo-1-(piperidin-1-yl)propan-2-yl)-3-(4-fluorophenyl)urea]
- cytotoxic effect in the MTT test [3]: did not exert any cytotoxic effects

SMILES: N#Cc1ccc(C[C@@H](NC(=O)Nc2ccc(F)cc2)C(=O)N2CCCc3ccccc32)cc1 [(R)-11g, (R)-1-(3-(4-Cyanophenyl)-1-(3,4-dihydroquinolin-1(2H)-yl)-1-oxopropan-2-yl)-3-(4-fluorophenyl)urea]
- less stable than (R)- and (S)-11b, (R)- and (S)-11c, and 2 [1]: 2–3 fold

SMILES: N#Cc1ccc(C[C@@H](NC(=O)Nc2ccc(F)cc2)C(=O)N2Cc3ccccc3C2)cc1 [(R)-11d, (R)-1-(3-(4-Cyanophenyl)-1-(isoindolin-2-yl)-1-oxopropan-2-yl)-3-(4-fluorophenyl)urea]
- less stable than (R)- and (S)-11b, (R)- and (S)-11c, and 2 [1]: 2–3 fold

SMILES: N#Cc1ccc(C[C@@H](NC(=O)Nc2ccc(F)cc2)C(=O)N2CCc3ccc(F)cc32)cc1 [(R)-11l, (R)-1-(3-(4-Cyanophenyl)-1-(6-fluoroindolin-1-yl)-1-oxopropan-2-yl)-3-(4-fluorophenyl)urea]
- microsomal CLint at 2 h, 10 µM ([1]; rat, rat liver microsomes): 23.3 µL/min/mg
- half-life at 2 h, 10 µM [1, 15]: 30 min

SMILES: N#Cc1ccc(C[C@H](NC(=O)Nc2ccc(F)cc2)C(=O)NC2CCCCNC2=O)cc1 (stereo partly drawn) [(S)-11a, (2S)-3-(4-Cyanophenyl)-2-(3-(4-fluorophenyl)ureido)-N-(2-oxoazepan-3-yl)propenamide]
- microsomal CLint at 2 h, 10 µM ([1]; rat, rat liver microsomes): 4.4 µL/min/mg
- half-life at 2 h, 10 µM [1, 15]: 157 min
- release of IL-1β and TNF-α under resting conditions [4]: did not induce the release
- effect on LPS-induced cytokines (IL-1β, TNF-α) production [4]: effectively decrease LPS-induced cytokines production
- increase in FPR2 potency as compared to 2 [2]: 20 fold
- cytotoxic effect in the MTT test [3]: did not exert any cytotoxic effects

SMILES: N#Cc1ccc(C[C@H](NC(=O)Nc2ccc(F)cc2)C(=O)N2CCc3ccc(F)cc32)cc1 [(S)-11l, (S)-1-(3-(4-Cyanophenyl)-1-(6-fluoroindolin-1-yl)-1-oxopropan-2-yl)-3-(4-fluorophenyl)urea]
- effect on LPS-induced NO production [5]: effectively blocked
- effect on NO production under resting conditions [5]: did not induce any effect
- Metabolic stability, % after 30 min incubation [1]: 33%
- release of IL-1β and TNF-α under resting conditions [4]: did not induce the release
- effect on LPS-induced cytokines (IL-1β, TNF-α) production [4]: effectively decrease LPS-induced cytokines production
- effect on LPS-induced cell death (LDH release) [6]: effectively blocked LPS-induced cell death
- effect on cell viability (LDH) under resting conditions [6]: did not induce any effect
- Tmax ([7]; ip, 10 mg/kg): 30 min
- Tmax ([7]; iv, 1 mg/kg): 5 min
- blood-brain barrier permeation ([7]; mice, i.p. 10 mg/kg): able to permeate the blood–brain barrier and to accumulate in the brain
- time until which the compound was detectable in plasma ([7]; mice, i.v. 1 mg/kg): 4 h
- effect on LPS-induced activation of caspase-3 [8]: significantly reduced this activation

SMILES: N#Cc1ccc(C[C@@H](NC(=O)Nc2ccc(F)cc2)C(=O)N2CCCC2)cc1 [(R)-11c, (R)-1-(3-(4-Cyanophenyl)-1-oxo-1-(pyrrolidin-1-yl)propan-2-yl)-3-(4-fluorophenyl)urea]
- cytotoxic effect in the MTT test [3]: did not exert any cytotoxic effects

SMILES: N#Cc1ccc(C[C@@H](NC(=O)Nc2ccc(F)cc2)C(=O)NC2CCCCNC2=O)cc1 (stereo partly drawn) [(R)-11a, (2R)-3-(4-Cyanophenyl)-2-(3-(4-fluorophenyl)ureido)-N-(2-oxoazepan-3-yl)propenamide]
- microsomal CLint at 2 h, 10 µM ([1]; rat, rat liver microsomes): 5.5 µL/min/mg
- half-life at 2 h, 10 µM [1, 15]: 120 min
- cytotoxic effect in the MTT test [3]: did not exert any cytotoxic effects

SMILES: N#Cc1ccc(C[C@@H](NC(=O)Nc2ccc(F)cc2)C(=O)N2CCc3ccccc32)cc1 [(R)-11e, (R)-1-(3-(4-Cyanophenyl)-1-(indolin-1-yl)-1-oxopropan-2-yl)-3-(4-fluorophenyl)urea]
- less stable than (R)- and (S)-11b, (R)- and (S)-11c, and 2 [1]: 2–3 fold

SMILES: N#Cc1ccc(C[C@@H](NC(=O)Nc2ccc(F)cc2)C(=O)N2CCc3ccccc3C2)cc1 [(R)-11f, (R)-1-(3-(4-Cyanophenyl)-1-(3,4-dihydroisoquinolin-2(1H)-yl)-1oxopropan-2-yl)-3-(4-fluorophenyl)urea]
- less stable than (R)- and (S)-11b, (R)- and (S)-11c, and 2 [1]: 2–3 fold

SMILES: N#Cc1ccc(C[C@H](NC(=O)Nc2ccc(F)cc2)C(=O)NCC2(c3ccc(F)c(Cl)c3)CC2)cc1 [Compound 2]
- release of TNF-α and IL-1β [10]: attenuated the release of TNF-α and IL-1β
- efflux ratio ER (BA/AB) [11]: 2.6
- Metabolic stability, % after 30 min incubation [12]: 33^b %
- neuronal survival, microglial cell density and plaque load [13]: improved neuronal survival and decreased microglial cell density and plaque load
- selectivity FPR2 versus FPR1 ([2]; EC50 FPR1 vs EC50 FPR2): almost equipotent at both receptors
- release of IL-1β and TNF-α [14]: reduces the release

SMILES: N#Cc1ccc(C[C@H](NC(=O)Nc2ccc(F)cc2)C(=O)N2CCc3ccccc32)cc1 [(S)-11e, (S)-1-(3-(4-Cyanophenyl)-1-(indolin-1-yl)-1-oxopropan-2-yl)-3-(4-fluorophenyl)urea]
- effect on LPS-induced NO production [5]: effectively blocked
- effect on NO production under resting conditions [5]: did not induce any effect
- microsomal CLint at 2 h, 10 µM ([1]; rat, rat liver microsomes): 33 µL/min/mg
- half-life at 2 h, 10 µM [1, 15]: 21 min
- less stable than (R)- and (S)-11b, (R)- and (S)-11c, and 2 [1]: 2–3 fold
- release of IL-1β and TNF-α under resting conditions [4]: did not induce the release
- effect on LPS-induced cytokines (IL-1β, TNF-α) production [4]: effectively decrease LPS-induced cytokines production
- effect on LPS-induced cell death (LDH release) [6]: effectively blocked LPS-induced cell death
- effect on cell viability (LDH) under resting conditions [6]: did not induce any effect
- effect on LPS-induced activation of caspase-3 [8]: significantly reduced this activation

SMILES: N#Cc1ccc(C[C@@H](NC(=O)Nc2ccc(F)cc2)C(=O)N2CCc3cc(F)ccc32)cc1 [(R)-11i, (R)-1-(3-(4-Cyanophenyl)-1-(5-fluoroindolin-1-yl)-1-oxopropan-2-yl)-3-(4-fluorophenyl)urea]
- Metabolic stability, % after 30 min incubation [1]: 58%
- microsomal CLint at 2 h, 10 µM ([1]; rat, rat liver microsomes): 6.4 µL/min/mg
- half-life at 10 μM [1, 15]: 108 min
